Laboratory results reported in patent US20240262826A1, “WILD TYPE KIT INHIBITORS” (Blueprint Medicines Corporation, priority 2022, published 2024).

The compounds below were run against wild type c-kit (Homo sapiens (Human), UniProt P10721) (assay: PathScan phospho c-kit (Tyr719) sandwich ELISA in SCF-stimulated M-07e cells (pKIT assay)). Conditions: ELISA assay (values not marked *).
Format: cell-based
In short: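 Serum- and GM-CSF-starved M-07e cells (4 h) pretreated 60 min at 37 °C with an 8-point compound series in duplicate (0.25% DMSO), then stimulated with human SCF (500 ng/mL stock) 10 min at room temperature. Lysate c-kit Tyr719 phosphorylation quantified by sandwich ELISA with TMB read-out; IC50 from 4-parameter logistic fit.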

Chain of wild type c-kit (P10721 26-976): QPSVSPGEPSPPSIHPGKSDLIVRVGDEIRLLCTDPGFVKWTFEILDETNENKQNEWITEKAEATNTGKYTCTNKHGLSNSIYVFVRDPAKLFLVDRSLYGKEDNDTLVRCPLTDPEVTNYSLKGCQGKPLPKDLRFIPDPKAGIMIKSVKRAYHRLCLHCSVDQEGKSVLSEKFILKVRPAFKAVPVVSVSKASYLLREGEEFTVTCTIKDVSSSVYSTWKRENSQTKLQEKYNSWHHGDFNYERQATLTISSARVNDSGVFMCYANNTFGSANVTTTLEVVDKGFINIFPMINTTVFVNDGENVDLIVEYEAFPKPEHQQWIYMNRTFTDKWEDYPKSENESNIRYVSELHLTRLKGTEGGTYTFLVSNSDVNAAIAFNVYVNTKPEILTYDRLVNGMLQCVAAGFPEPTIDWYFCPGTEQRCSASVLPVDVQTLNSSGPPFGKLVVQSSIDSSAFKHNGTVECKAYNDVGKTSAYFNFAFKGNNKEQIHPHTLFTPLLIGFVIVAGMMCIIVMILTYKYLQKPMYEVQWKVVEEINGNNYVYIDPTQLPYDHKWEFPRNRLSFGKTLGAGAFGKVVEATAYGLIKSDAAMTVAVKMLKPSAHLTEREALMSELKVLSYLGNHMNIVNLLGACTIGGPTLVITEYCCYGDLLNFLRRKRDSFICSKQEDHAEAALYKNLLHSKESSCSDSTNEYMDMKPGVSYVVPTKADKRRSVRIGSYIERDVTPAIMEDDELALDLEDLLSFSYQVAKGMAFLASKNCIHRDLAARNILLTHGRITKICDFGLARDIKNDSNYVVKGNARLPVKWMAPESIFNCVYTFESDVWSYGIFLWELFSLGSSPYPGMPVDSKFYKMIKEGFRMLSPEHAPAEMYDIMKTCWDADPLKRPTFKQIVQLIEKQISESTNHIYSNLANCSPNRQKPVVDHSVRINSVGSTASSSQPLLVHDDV

`COC(=O)N1CC(c2cnn(-c3ccc(C)c(NC(=O)c4cnn5ccc(N6CCN(C7COC7)CC6)cc45)c3)n2)C1` [Example 83, methyl 3-(2-(4-methyl-3-(5-(4-(oxetan-3-yl)piperazin-1-yl)pyrazolo[1,5-a]pyridine-3-carboxamido)phenyl)-2H-1,2,3-triazol-4-yl)azetidine-1-carboxylate] and `[2H]C([2H])([2H])N1CCN(c2ccn3ncc(C(=O)Nc4cc(-c5nnn(C6CN(C(=O)OC)C6)n5)ccc4C)c3c2)CC1` [Example 72, methyl 3-(5-(4-methyl-3-(5-(4-(methyl-d3)piperazin-1-yl)pyrazolo[1,5-a]pyridine-3-carboxamido)phenyl)-2H-tetrazol-2-yl)azetidine-1-carboxylate] are within 1.5-fold of each other in IC50: 50.4 nM for the first, 38.4 nM for the second.

First: Cc1ccc(-c2nnn([C@H]3C[C@H](CO)C3)n2)cc1NC(=O)c1cnn2ccccc12 [Example 200, N-(5-(2-((1r,3r)-3-(hydroxymethyl)cyclobutyl)-2H-tetrazol-5-yl)-2-methylphenyl)pyrazolo[1,5-a]pyridine-3-carboxamide]
Second: COC(=O)N1CC(n2nnc(-c3ccc(C)c(NC(=O)c4cnn5ccccc45)c3)n2)C1 [Example 191, methyl 3-(5-(4-methyl-3-(pyrazolo[1,5-a]pyridine-3-carboxamido)phenyl)-2H-tetrazol-2-yl)azetidine-1-carboxylate]
The IC50 of the first is 2.4-fold lower: 16.9 nM for the first, 41.3 nM for the second. The first is the more potent here.

Going from `Cc1ccc(-c2nnn(C3CN(S(=O)(=O)CC4CCC4)C3)n2)cc1NC(=O)c1cnn2ccccc12` [Example 180, N-(5-(2-(1-((cyclobutylmethyl)sulfonyl)azetidin-3-yl)-2H-tetrazol-5-yl)-2-methylphenyl)pyrazolo[1,5-a]pyridine-3-carboxamide] to `COCCOCCS(=O)(=O)N1CC(n2nnc(-c3ccc(C)c(NC(=O)c4cnn5ccccc45)c3)n2)C1` [Example 185, N-(5-(2-(1-((2-(2-methoxyethoxy)ethyl)sulfonyl)azetidin-3-yl)-2H-tetrazol-5-yl)-2-methylphenyl)pyrazolo[1,5-a]pyridine-3-carboxamide], the IC50 rises from 13.4 nM to 161 nM (12-fold).

Going from `Cn1nnc(-c2ccc(Cl)c(NC(=O)c3cnn4ccc(-c5cnn(CCO)c5)cc34)c2)n1` [Example 218, N-(2-chloro-5-(2-methyl-2H-tetrazol-5-yl)phenyl)-5-(1-(2-hydroxyethyl)-1H-pyrazol-4-yl)pyrazolo[1,5-a]pyridine-3-carboxamide] to `Cc1nn(CC(C)(C)O)cc1-c1ccn2ncc(C(=O)Nc3cc(-c4nnn(C5CC5)n4)ccc3Cl)c2c1` [Example 250, N-(2-chloro-5-(2-cyclopropyl-2H-tetrazol-5-yl)phenyl)-5-(1-(2-hydroxy-2-methylpropyl)-3-methyl-1H-pyrazol-4-yl)pyrazolo[1,5-a]pyridine-3-carboxamide], the IC50 falls from 5.2 nM to 0.4 nM (13-fold). The second is the more potent here.

Going from `O=C(Nc1cc(-c2nnn(C3CN(CC(F)(F)F)C3)n2)ccc1Cl)c1cnn2ccccc12` [Example 195, N-(2-chloro-5-(2-(1-(2,2,2-trifluoroethyl)azetidin-3-yl)-2H-tetrazol-5-yl)phenyl)pyrazolo[1,5-a]pyridine-3-carboxamide] to `O=C(Nc1cc(-c2nnn(CC3CC3(F)F)n2)ccc1Cl)c1cnn2ccccc12` (stereo not shown) [Example 16, N-(2-chloro-5-(2-((2,2-difluorocyclopropyl)methyl)-2H-tetrazol-5-yl)phenyl)pyrazolo[1,5-a]pyridine-3-carboxamide], the IC50 falls from 8.7 nM to 2.3 nM (3.8-fold). The second is the more potent here.

Compared with `Cc1ccc(-n2ncc(C3CC(F)(F)C3)n2)cc1NC(=O)c1cnn2ccccc12` [Example 161, N-(5-(4-(3,3-difluorocyclobutyl)-2H-1,2,3-triazol-2-yl)-2-methylphenyl)pyrazolo[1,5-a]pyridine-3-carboxamide], `Cc1ccc(-c2nnn(C)n2)cc1NC(=O)c1cnn2ccccc12` [Example 2, N-(2-methyl-5-(2-methyl-2H-tetrazol-5-yl)phenyl)pyrazolo[1,5-a]pyridine-3-carboxamide] is 1.9-fold lower in IC50: 9 nM for the first, 4.8 nM for the second.

First: CC(C)(O)Cn1cc(-c2ccn3ncc(C(=O)Nc4cc(-n5nnc(C6CC6)n5)ccc4F)c3c2)cn1 [Example 217, N-(5-(5-cyclopropyl-2H-tetrazol-2-yl)-2-fluorophenyl)-5-(1-(2-hydroxy-2-methylpropyl)-1H-pyrazol-4-yl)pyrazolo[1,5-a]pyridine-3-carboxamide]
Second: COC[C@@](C)(O)Cn1cc(-c2ccn3ncc(C(=O)Nc4cc(-c5nnn(C6CC6)n5)c(F)cc4C)c3c2)c(C)n1 (single isomer, unassigned) [Example 249, (S)-N-(5-(2-cyclopropyl-2H-tetrazol-5-yl)-4-fluoro-2-methylphenyl)-5-(1-(2-hydroxy-3-methoxy-2-methylpropyl)-3-methyl-1H-pyrazol-4-yl)pyrazolo[1,5-a]pyridine-3-carboxamide or (R)-N-(5-(2-cyclopropyl-2H-tetrazol-5-yl)-4-fluoro-2-methylphenyl)-5-(1-(2-hydroxy-3-methoxy-2-methylpropyl)-3-methyl-1H-pyrazol-4-yl)pyrazolo[1,5-a]pyridine-3-carboxamide]
The IC50 of the first is 12-fold higher: 8.1 nM for the first, 0.7 nM for the second.

`COC(=O)N1CC(n2nnc(-c3ccc(C)c(NC(=O)c4cnn5ccc(N(C)C)cc45)c3)n2)C1` [Example 132, methyl 3-(5-(3-(5-(dimethylamino)pyrazolo[1,5-a]pyridine-3-carboxamido)-4-methylphenyl)-2H-tetrazol-2-yl)azetidine-1-carboxylate] and `COC(=O)N1CC(n2nnc(-c3ccc(C)c(NC(=O)c4cnn5ccc(N6CCC(F)(F)CC6)cc45)c3)n2)C1` [Example 147, methyl 3-(5-(3-(5-(4,4-difluoropiperidin-1-yl)pyrazolo[1,5-a]pyridine-3-carboxamido)-4-methylphenyl)-2H-tetrazol-2-yl)azetidine-1-carboxylate] are within 1.5-fold of each other in IC50: 21.4 nM for the first, 31.6 nM for the second.

Compared with `Cc1nn([C@H](C)[C@H](C)O)cc1-c1ccn2ncc(C(=O)Nc3cc(-c4nnn(C5CC5)n4)c(F)cc3Cl)c2c1` (single isomer, unassigned) [Example 289, N-(2-chloro-5-(2-cyclopropyl-2H-tetrazol-5-yl)-4-fluorophenyl)-5-(1-((2R,3S)-3-hydroxybutan-2-yl)-3-methyl-1H-pyrazol-4-yl)pyrazolo[1,5-a]pyridine-3-carboxamide or N-(2-chloro-5-(2-cyclopropyl-2H-tetrazol-5-yl)-4-fluorophenyl)-5-(1-((2S,3R)-3-hydroxybutan-2-yl)-3-methyl-1H-pyrazol-4-yl)pyrazolo[1,5-a]pyridine-3-carboxamide], `Cc1ccc(-c2nnn(C3CN(S(C)(=O)=O)C3)n2)cc1NC(=O)c1cnn2ccc(CCC(C)(C)O)cc12` [Example 155, 5-(3-hydroxy-3-methylbutyl)-N-(2-methyl-5-(2-(1-(methylsulfonyl)azetidin-3-yl)-2H-tetrazol-5-yl)phenyl)pyrazolo[1,5-a]pyridine-3-carboxamide] is 93-fold higher in IC50: 0.6 nM for the first, 55.9 nM for the second.

With `COC(=O)N1CC(n2nnc(-c3ccc(C)c(NC(=O)c4cnn5ccc(N6CCO[C@@H](CO)C6)cc45)c3)n2)C1` [Example 91, methyl (R)-3-(5-(3-(5-(2-(hydroxymethyl)morpholino)pyrazolo[1,5-a]pyridine-3-carboxamido)-4-methylphenyl)-2H-tetrazol-2-yl)azetidine-1-carboxylate] the IC50 was 50.9 nM.
